Assay results: US20030220521A1, “Renal-selective prodrugs for control of renal sympathetic nerve activity in the treatment of hypertension” (G.D. Searle & Co., priority 1989, published 2003)

Tests used:
[1] = test system: gamma-glutamyl transpeptidase and acylase I; experiment: Assay IV: metabolism of conjugate by purified transpeptidase and acylase; format: in vitro ADME
Protocol: […] The resulting suspension, diluted with buffer, was incubated in the presence of the Ex. #859 conjugate at 37° C. At various times aliquots were removed, deproteinized with an equal volume of cold trichloroacetic acid (25%) and centrifuged. The supernatant was injected onto a C-18 reverse-phase HPLC column and eluted isocratically with a mixture of acetonitrile and water (20:80 v/v) containing trifluoroacetic acid (0.05%). Eluted compounds were monitored by absorbance at 254 nm and compared to standards run under identical conditions. In the assay using pure kidney enzyme homogenate, the Ex. #859 conjugate was also incubated under the same conditions as described except that 5 mg of gamma-glutamyl transpeptidase (Sigma, 23 units/mg) and 10 mg of acylase I (Sigma, 4800 units/mg) were added in place of the homogenate. Analysis by HPLC was performed in a manner identical to that used for the kidney homogenate experiment.

male SHR = experiment: Assay XIII: renal blood flow experiments in anesthetized SHR (renal denervation, bulbocapnine); format: in vivo, rat; conditions: for Mean arterial pressure / Renal Blood Flow: conjugate alone
Protocol: This experiment was run to determine the roles of the renal sympathetic nerves and dopamine in the antihypertensive response to Ex. #859. For renal blood flow experiments, male SHR (11-13 weeks of age; Harlan Sprague-Dawley, Inc., Indianapolis, Ind.) were anesthetized (Inactin, 100 mg/kg, i.p.), catheters were implanted in a jugular vein and carotid artery, and an electromagnetic flow probe (Carolina Medical Electronics, Inc., King, N.C.) was placed on the left renal artery. Care was taken not to damage the renal nerves. A tracheal catheter maintained airway patency. The SHR were placed on a heated pad to maintain normal body temperature (Harvard Apparatus, South Natick, Mass.). In one group of SHR (n=6) surgical renal denervation was performed (prior to implanting the flow probe) through a left flank incision by surgically stripping the renal artery and vein of adventitia and cutting all visible renal nerve bundles under a dissection microscope (×25) and coating the vessels with a solution of 10% phenol in 95% ethanol, as previously described (9,10). In a second group of SHR (n=6) bulbocapnine (a dopamine receptor antagonist) was infused at 100 μg/kg/min starting 30 minutes prior to injection of Ex. #859 (50 mg/kg, i.v.) and continued for the duration of the study. In a third group of SHR (n=6) Ex. #859 (50 mg/kg, i.v.) was administered alone. In a final group of SHR (n=6) vehicle (0.9% NaCl) was administered. SHR were allowed 60 minutes for stabilization after surgery. After the stabilization period, 15 minutes of control mean arterial pressure and renal blood flow were obtained. Mean arterial pressure and renal blood flow were recorded for one hour.

Male mongrel dogs = experiment: Assay XII: acute i.v. effects on mean arterial pressure and renal blood flow in anesthetized dogs; format: in vivo, dog
Protocol: This experiment was run to determine the renal selectivity of conjugate of the invention in dogs. Male mongrel dogs (15-20 kg/n=8; Antech, Inc., Barnhard, Mo.) were anesthetized with sodium pentobarbital (30 mg/kg as i.v. bolus, and 4-6 mg/kg/hr infusion) and catheters were placed in the femoral veins for compound injection or pentobarbital infusion, and the femoral artery for arterial pressure recording. An electromagnetic flow probe (Carolina Medical Electronics, Inc., King, N.C.) was placed around the left renal artery for measurement of renal blood flow. Renal blood flow and arterial pressure were recorded on a Gould chart recorder. After surgery, 20-30 minutes were allowed for variables to stabilize. […] Variables were monitored for the next three hours. Results are shown in Table XXXIV and FIGS. 14 and 15.

anesthetized dog = experiment: Assay XI: intrarenal administration of fusaric acid in anesthetized dogs (MAP, RBF, UNaV); format: in vivo
[2] = 7 mg/kg, 1 hour after injection
[3] = 7 mg/kg, 2 hour after injection
[4] = 7 mg/kg, 3 hour after injection
[5] = 20 mg/kg i.v., 1 hour after injection
[6] = 20 mg/kg i.v., 2 hour after injection
[7] = 20 mg/kg i.v., 3 hour after injection
[8] = 60 mg/kg i.v., 1 hour after injection
[9] = 60 mg/kg i.v., 2 hour after injection
[10] = 60 mg/kg i.v., 3 hour after injection
[11] = Dog #1, intrarenal infusion 1.25 mg/kg/min
[12] = Dog #2, intrarenal infusion 0.75 mg/kg/min
[13] = anesthetized dog, bolus intrarenal 0.5, 1.0 and 5.0 mg/kg

Question: What does the source list for `CCCCc1ccc(C(=O)NNC(=O)CCC(NC(C)=O)C(=O)O)nc1` [Ex. #859, N-acetyl-L-glutamic acid, 5-[(5-butyl-2-pyridinyl)-carbonyl]hydrazide]?
Answer: Fusaric Acid formed from conjugate ([1]; 3 h, pH 7.4): 0.00 µg/mL; Fusaric Acid formed from conjugate ([1]; 3 h, pH 8.1): 0.00 µg/mL; Fusaric Acid formed from conjugate ([1]; 24 h, pH 7.4): 2.56 µg/mL; Fusaric Acid formed from conjugate ([1]; 24 h, pH 8.1): 1.12 µg/mL; Fusaric Acid formed from conjugate ([1]; 72 h, pH 7.4): 12.15 µg/mL; Fusaric Acid formed from conjugate ([1]; 72 h, pH 8.1): 4.46 µg/mL; Fusaric Acid formed from conjugate ([1]; 96 h, pH 7.4): 15.44 µg/mL; Fusaric Acid formed from conjugate ([1]; 96 h, pH 8.1): 5.22 µg/mL; Fusaric Acid formed from conjugate ([1]; 120 h, pH 7.4): 18.75 µg/mL; Fusaric Acid formed from conjugate ([1]; 120 h, pH 8.1): 6.55 µg/mL; species present after incubation ([1]; purified gamma-glutamyl transpeptidase and acylase I): only fusaric acid and the unreacted compound being present; effect on renal blood flow (male SHR; anesthetized SHR, 50 mg/kg i.v. after surgical renal denervation): not changed; effect on renal blood flow (male SHR; anesthetized SHR, 50 mg/kg i.v. alone, 60 minutes after injection): increased; effect on renal blood flow (male SHR; anesthetized SHR, 50 mg/kg i.v. during bulbocapnine infusion (100 μg/kg/min)): not changed; effect on mean arterial pressure (male SHR; anesthetized SHR, 50 mg/kg i.v., all groups): not changed; Mean arterial pressure (male SHR; time 0 minutes): 149 ± 8 mmHg; Renal Blood Flow (male SHR; time 0 minutes): 7 ± 2 mL/min; Mean arterial pressure (male SHR; time 60 minutes): 149 ± 7 mmHg; Renal Blood Flow (male SHR; time 60 minutes): 12 ± 2 mL/min; Mean arterial pressure (Male mongrel dogs; [2]): 116 ± 5 mmHg; Renal Blood Flow (Male mongrel dogs; [2]): 92 ± 5 mL/min; Mean arterial pressure (Male mongrel dogs; [3]): 113 ± 4 mmHg; Renal Blood Flow (Male mongrel dogs; [3]): 111 ± 14 mL/min; Mean arterial pressure (Male mongrel dogs; [4]): 114 ± 4 mmHg; Renal Blood Flow (Male mongrel dogs; [4]): 118 ± 23 mL/min; Mean arterial pressure (Male mongrel dogs; 7 mg/kg, time zero): 114 ± 6 mmHg; Renal Blood Flow (Male mongrel dogs; 7 mg/kg, time zero): 92 ± 5 mL/min; Mean arterial pressure (Male mongrel dogs; [5]): 124 ± 2 mmHg; Renal Blood Flow (Male mongrel dogs; [5]): 107 ± 14 mL/min; Mean arterial pressure (Male mongrel dogs; [6]): 125 ± 3 mmHg; Renal Blood Flow (Male mongrel dogs; [6]): 122 ± 20 mL/min; Mean arterial pressure (Male mongrel dogs; [7]): 125 ± 4 mmHg; Renal Blood Flow (Male mongrel dogs; [7]): 126 ± 24 mL/min; Mean arterial pressure (Male mongrel dogs; 20 mg/kg i.v., time zero): 120 ± 3 mmHg; Renal Blood Flow (Male mongrel dogs; 20 mg/kg i.v., time zero): 88 ± 11 mL/min; Mean arterial pressure (Male mongrel dogs; [8]): 124 ± 1 mmHg; Renal Blood Flow (Male mongrel dogs; [8]): 145 ± 21 mL/min; Mean arterial pressure (Male mongrel dogs; [9]): 126 ± 3 mmHg; Renal Blood Flow (Male mongrel dogs; [9]): 168 ± 28 mL/min; Mean arterial pressure (Male mongrel dogs; [10]): 120 ± 4 mmHg; Renal Blood Flow (Male mongrel dogs; [10]): 176 ± 32 mL/min; Mean arterial pressure (Male mongrel dogs; 60 mg/kg i.v., time zero): 123 ± 3 mmHg; Renal Blood Flow (Male mongrel dogs; 60 mg/kg i.v., time zero): 131 ± 21 mL/min; melting point: 191.5 to 192 °C

Question: With `CCCCc1ccc(C(=O)O)nc1` [Fusaric Acid, 5-n-butylpicolinic acid] as the compound, how does the MAP (anesthetized dog; [11]) read?
Answer: 136 mm Hg

Question: What about the “UNa V” value (anesthetized dog; [11]) of the same compound?
Answer: 82 μEqlmin

Question: What about the “Δ RBF” value (anesthetized dog; [11]) of the same compound?
Answer: 240 mL/min

Question: And the MAP (anesthetized dog; [12])?
Answer: 148 mm Hg

Question: What about the “UNa V” value (anesthetized dog; [12]) of the same compound?
Answer: 13 μEqlmin

Question: And the “Δ RBF” value (anesthetized dog; [12])?
Answer: 315 mL/min

Question: What about the “effect on mean arterial pressure” value (anesthetized dog; [13]) of the same compound?
Answer: no significant effect

Question: And the “effect on renal blood flow” value (anesthetized dog; [13])?
Answer: dose-related increases

Question: And the “effect on urinary sodium excretion” value (anesthetized dog; [13])?
Answer: no significant effect

Question: What about the “effect on MAP, RBF and UNaV” value (anesthetized dog; anesthetized dog, bolus intrarenal injection 0.1 mg/kg) of the same compound?
Answer: no effect on any measure

Question: What about the MAP (anesthetized dog; intrarenal bolus 0.1 mg/kg) of the same compound?
Answer: 136 mm Hg

Question: And the “UNa V” value (anesthetized dog; intrarenal bolus 0.1 mg/kg)?
Answer: 21.2 μEq/min

Question: And the “Δ RBF” value (anesthetized dog; intrarenal bolus 0.1 mg/kg)?
Answer: 0 mL/min

Question: What about the MAP (anesthetized dog; intrarenal bolus 0.5 mg/kg) of the same compound?
Answer: 136 mm Hg

Question: What about the “UNa V” value (anesthetized dog; intrarenal bolus 0.5 mg/kg) of the same compound?
Answer: 23.8 μEq/min

Question: And the “Δ RBF” value (anesthetized dog; intrarenal bolus 0.5 mg/kg)?
Answer: +46 ml/min

Question: What about the MAP (anesthetized dog; intrarenal bolus 1.0 mg/kg) of the same compound?
Answer: 138 mm Hg

Question: And the “UNa V” value (anesthetized dog; intrarenal bolus 1.0 mg/kg)?
Answer: 21.1 μEq/min

Question: And the “Δ RBF” value (anesthetized dog; intrarenal bolus 1.0 mg/kg)?
Answer: +58 ml/min

Question: What about the MAP (anesthetized dog; intrarenal bolus 5.0 mg/kg) of the same compound?
Answer: 140 mm Hg

Question: And the “UNa V” value (anesthetized dog; intrarenal bolus 5.0 mg/kg)?
Answer: 34.8 μEq/min

Question: What about the “Δ RBF” value (anesthetized dog; intrarenal bolus 5.0 mg/kg) of the same compound?
Answer: +132 ml/min
